{"source": "patent US10702521B2", "about": "“Methods for treating neisseria gonorrhoeae infection with substituted 1,2-dihydro-2A,5,8A-triazaacenaphthylene-3,8-diones” (priority 2014, dated 2020)", "note": "Counter-ions that a name gives are not always drawn.", "data": [{"test_system": "Mycobacterium tuberculosis H37Rv", "assay": "Mycobacterium tuberculosis H37Rv Inhibition Assay (resazurin MIC)", "format": "cell-based", "settings": "144 h, H37Rv strain, six days incubation, resazurin fluorescence after 48 hours, read-out: MIC value", "units": {"MIC": "µg/mL"}, "values": [{"compound": "O=c1ccc2ncc(=O)n3c2n1C[C@H]3CN1CCC(NCc2cnc3nsnc3c2)CC1", "note": "[Example 49, (2R)-2-({4-[([1,2,5]Thiadiazolo[3,4-b]pyridin-6-ylmethyl)amino]-1-piperidinyl}methyl)-1,2-dihydro-3H,8H-2a,5,8a-triazaacenaphthylene-3,8-dione]", "MIC": "< 2"}, {"compound": "O=c1ccc2ccc(=O)n3c2n1C[C@H]3CN1CCC(NCc2cc(F)c3c(c2)OCCO3)CC1", "note": "[Example 31, (1R)-1-[(4-{[(8-Fluoro-2,3-dihydro-1,4-benzodioxin-6-yl)methyl]amino}-1-piperidinyl)methyl]-1,2-dihydro-4H,9H-imidazo[1,2,3-ij]-1,8-naphthyridine-4,9-dione hydrochloride]", "MIC": "< 2"}, {"compound": "Cl.Cl.O=C1COc2cc(Cl)c(CNC3CCN(C[C@@H]4Cn5c(=O)ccc6ccc(=O)n4c65)CC3)nc2N1", "note": "[Example 32, (1R)-1-[(4-{[(7-Chloro-3-oxo-3,4-dihydro-2H-pyrido[3,2-b][1,4]oxazin-6-yl)methyl]amino}-1-piperidinyl)methyl]-1,2-dihydro-4H,9H-imidazo[1,2,3-ij]-1,8-naphthyridine-4,9-dione dihydrochloride]", "MIC": "< 2"}]}, {"test_system": "Mycobacterium tuberculosis H37Rv", "assay": "Mycobacterium tuberculosis H37Rv Inhibition Assay (resazurin MIC)", "format": "cell-based", "settings": "144 h, read-out: MIC value, H37Rv strain, six days incubation, resazurin fluorescence after 48 hours", "units": {"MIC": "µg/mL"}, "values": [{"compound": "O=c1ccc2ccc(=O)n3c2n1C[C@H]3CN1CCC(NCc2cc3c(cn2)CCC3)CC1", "note": "[Example 8, (1R)-1-({4-[(6,7-Dihydro-5H-cyclopenta[c]pyridin-3-ylmethyl)amino]-1-piperidinyl}methyl)-1,2-dihydro-4H,9H-imidazo[1,2,3-ij]-1,8-naphthyridine-4,9-dione hydrochloride]", "MIC": "< 2"}, {"compound": "O=c1ccc2ccc(=O)n3c2n1C[C@H]3CN1CCC(NCc2ccc3c(c2)OCCC3)CC1", "note": "[Example 50, (1R)-1-({4-[(3,4-Dihydro-2H-chromen-7-ylmethyl)amino]-1-piperidinyl}methyl)-1,2-dihydro-4H,9H-imidazo[1,2,3-if]-1,8-naphthyridine-4,9-dione hydrochloride]", "MIC": "< 2"}, {"compound": "O=c1ccc2ccc(=O)n3c2n1C[C@H]3CN1CCC(NCc2cc3c(cn2)OCS3)CC1", "note": "[Example 5A, (1R)-1-({4-[([1,3]Oxathiolo[5,4-c]pyridin-6-ylmethyl)amino]-1-piperidinyl}methyl)-1,2-dihydro-4H,9H-imidazo[1,2,3-ij]-1,8-naphthyridine-4,9-dione hydrochloride]", "MIC": "< 2"}, {"compound": "O=c1ccc2ncc(=O)n3c2n1C[C@H]3CN1CCC(NCc2cc3c(cn2)OCS3)CC1", "note": "[Example 16A, (2R)-2-({4-[([1,3]Oxathiolo[5,4-c]pyridin-6-ylmethyl)amino]-1-piperidinyl}methyl)-1,2-dihydro-3H,8H-2a,5,8a-triazaacenaphthylene-3,8-dione hydrochloride]", "MIC": "< 2"}, {"compound": "O=c1cnc2ccc(=O)n3c2n1C[C@H]3CN1CCC(NCc2cc3c(cn2)OCCS3)CC1", "note": "[Example 14, (1R)-1-({4-[(2,3-Dihydro[1,4]oxathiino[2,3-c]pyridin-7-ylmethyl)amino]-1-piperidinyl}methyl)-1,2-dihydro-3H,8H-2a,5,8a-triazaacenaphthylene-3,8-dione hydrochloride]", "MIC": "< 2"}, {"compound": "N#Cc1cc(CNC2CCN(C[C@@H]3Cn4c(=O)cnc5ccc(=O)n3c54)CC2)cc2c1OCCO2", "note": "[Example 56, 7-{[(1-{[(1R)-3,8-Dioxo-1,2-dihydro-3H,8H-2a,5,8a-triazaacenaphthylen-1-yl]methyl}-4-piperidinyl)amino]methyl}-2,3-dihydro-1,4-benzodioxin-5-carbonitrile hydrochloride]", "MIC": "< 2"}, {"compound": "O=c1cnc2ccc(=O)n3c2n1C[C@H]3CN1CCC(NCc2cc3c(cn2)OCS3)CC1", "note": "[Example 13A, (1R)-1-({4-[([1,3]Oxathiolo[5,4-c]pyridin-6-ylmethyl)amino]-1-piperidinyl}methyl)-1,2-dihydro-3H,8H-2a,5,8a-triazaacenaphthylene-3,8-dione hydrochloride]", "MIC": "< 2"}]}, {"test_system": "Mycobacterium tuberculosis H37Rv", "assay": "Mycobacterium tuberculosis H37Rv Inhibition Assay (resazurin MIC)", "format": "cell-based", "settings": "H37Rv strain, six days incubation, resazurin fluorescence after 48 hours, read-out: MIC value", "units": {"MIC": "µg/mL"}, "values": [{"compound": "O=C1CSc2ccc(CNC3CCN(C[C@@H]4Cn5c(=O)ccc6ncc(=O)n4c65)CC3)nc2N1", "note": "[Example 29, (2R)-2-[(4-{[(3-Oxo-3,4-dihydro-2H-pyrido[3,2-b][1,4]thiazin-6-yl)methyl]amino}-1-piperidinyl)methyl]-1,2-dihydro-3H,8H-2a,5,8a-triazaacenaphthylene-3,8-dione hydrochloride]", "MIC": "< 2"}, {"compound": "CC1(NCc2cc3c(cn2)OCCS3)CCN(C[C@@H]2Cn3c(=O)ccc4ccc(=O)n2c43)CC1", "note": "[Example 23, (1R)-1-({4-[(2,3-Dihydro[1,4]oxathiino[2,3-c]pyridin-7-ylmethyl)amino]-4-methyl-1-piperidinyl}methyl)-1,2-dihydro-4H,9H-imidazo[1,2,3-ij]-1,8-naphthyridine-4,9-dione hydrochloride]", "MIC": "< 2"}, {"compound": "O=c1ccc2ccc(=O)n3c2n1CC3CN1CCC(NCc2cc3c(cn2)OCCS3)CC1", "note": "(racemic) [Example 63]", "MIC": "< 2"}, {"compound": "O=c1ccc2ncc(=O)n3c2n1C[C@H]3CN1CCC(NCc2cc3c(cn2)SCO3)CC1", "note": "[Example 28, (2R)-2-({4-[([1,3]Oxathiolo[4,5-c]pyridin-6-ylmethyl)amino]-1-piperidinyl}methyl)-1,2-dihydro-3H,8H-2a,5,8a-triazaacenaphthylene-3,8-dione hydrochloride]", "MIC": "< 2"}, {"compound": "O=c1ccc2ccc(CNC3CCN(C[C@@H]4Cn5c(=O)ccc6ccc(=O)n4c65)CC3)cc2o1", "note": "[Example 59, (1R)-1-[(4-{[(2-Oxo-2H-chromen-7-yl)methyl]amino}-1-piperidinyl)methyl]-1,2-dihydro-4H,9H-imidazo[1,2,3-ij]-1,8-naphthyridine-4,9-dione]", "MIC": "< 2"}, {"compound": "CC1(NCc2cc3c(cn2)OCS3)CCN(C[C@@H]2Cn3c(=O)ccc4ccc(=O)n2c43)CC1.Cl", "note": "[Example 24, (1R)-1-({4-Methyl-4-[([1,3]oxathiolo[5,4-c]pyridin-6-ylmethyl)amino]-1-piperidinyl}methyl)-1,2-dihydro-4H,9H-imidazo[1,2,3-ij]-1,8-naphthyridine-4,9-dione hydrochloride]", "MIC": "< 2"}]}, {"test_system": "Mycobacterium tuberculosis H37Rv", "assay": "Mycobacterium tuberculosis H37Rv Inhibition Assay (resazurin MIC)", "format": "cell-based", "settings": "read-out: MIC value, H37Rv strain, six days incubation, resazurin fluorescence after 48 hours", "units": {"MIC": "µg/mL"}, "values": [{"compound": "O=c1ccc2ccc(=O)n3c2n1C[C@H]3CN1CCC(NCc2nc3cccc(F)c3[nH]2)CC1", "note": "[Example 46, (1R)-1-[(4-{[(4-Fluoro-1H-benzimidazol-2-yl)methyl]amino}-1-piperidinyl)methyl]-1,2-dihydro-4H,9H-imidazo[1,2,3-ij]-1,8-naphthyridine-4,9-dione dihydrochloride]", "MIC": "< 2"}, {"compound": "O=c1cnc2ccc(=O)n3c2n1C[C@H]3CN1CCC(NCc2ccc3c(c2)OCCO3)CC1", "note": "[Example 44, (1R)-1-({4-[(2,3-Dihydro-1,4-benzodioxin-6-ylmethyl)amino]-1-piperidinyl}methyl)-1,2-dihydro-3H,8H-2a,5,8a-triazaacenaphthylene-3,8-dione hydrochloride]", "MIC": "< 2"}, {"compound": "O=c1ccc2ncc(=O)n3c2n1CC3CN1CCC(NCc2cc3c(cn2)OCCS3)CC1", "note": "(centres unmarked) [Example 20, 2-({4-[(2,3-Dihydro[1,4]oxathiino[2,3-c]pyridin-7-ylmethyl)amino]-1-piperidinyl}methyl)-1,2-dihydro-3H,8H-2a,5,8a-triazaacenaphthylene-3,8-dione hydrochloride]", "MIC": "< 2"}, {"compound": "O=c1ccc2ccc(=O)n3c2n1C[C@H]3CN1CCC(NCc2cc3c(cn2)OCCS3)CC1", "note": "[Example 6A, (1R)-1-({4-[(2,3-Dihydro[1,4]oxathiino[2,3-c]pyridin-7-ylmethyl)amino]-1-piperidinyl}methyl)-1,2-dihydro-4H,9H-imidazo[1,2,3-ij]-1,8-naphthyridine-4,9-dione hydrochloride]", "MIC": "< 2"}]}]}
